# Assay results from patent publication US20250352563A1, “Method and Use of Psilocybin in the Prevention and Treatment of Stroke” (Revive Therapeutics Ltd, priority 2022, published 2025).
# Tests used:
# stroke rats (MCAo) [1] = assay: ANA12 antagonism of psilocybin-mediated neuroprotection in MCAo stroke rats; format: in vivo, rat
# [2] = tested on: primary cortical neuronal culture; assay: ANA12 antagonism of psilocybin-mediated protection in primary cortical neuronal culture; settings: Glu 100 μM + Psi 10 μM + ANA 10 μM; p<0.05, one-way ANOVA
# Source text: A selective BDNF antagonist ANA12 was included on D10 along with psilocybin and glutamate (see timeline in FIG. 6C).
# [3] = tested on: rat model of stroke (MCAo); settings: intraperitoneal injection prior to MCAo; cited from earlier work
# [4] = tested on: rat primary cortical neuronal culture; assay: Glutamate neurotoxicity in primary cortical neuronal culture (MAP2 immunocytochemistry)
# [5] = non-lesioned brain; cited from earlier work
# stroke rats (MCAo) [6] = assay: Post-stroke i.p. treatment, neurological and locomotor tests in MCAo stroke rats; settings: 1 mg/kg/d i.p. days 3 to 7 after MCAo
# Procedure: In the posttreatment group, Psilocybin (1 mg/kg/day, n=7) or vehicle (n=6) was administered i.p. from day 3 to day 7.
# (b) Neurological deficits were scored by the Bederson's neurological test (35, 36). In a postural reflex test, rats were examined for the degree of abnormal posture when suspended by 20-30 cm above the testing table. They were scored according to the following criteria. • 0 Rats extend both forelimbs straight. No observable deficit. • 1 Rats keep the one forelimb to the breast and extend the other forelimb straight. • 2 Rats show decreased resistance to lateral push in addition to behavior in score 1 without circling. • 3 Rats twist the upper half of their body in addition to behavior in score 2.
# (§1) Locomotion was measured using an infrared activity monitor (Accuscan, Columbus, OH) as we previously described (19, 37). Rats were individually placed in a 3D infrared behavior chamber (42×42×21 cm) for 60 min. Four parameters were recorded: (a) horizontal activity (HACTV, the total number of beam interruptions that occurred in the horizontal sensors), (b) total distance traveled (TOTDIST, the distance, in centimeters, traveled by the animals), and (c) No. of movements (MOVNO), (d) horizontal movements time (MOVTIME).
# Psilocybin (1 mg/kg/d, n=7) or vehicle (n=6) was delivered systemically (i.p.) from days 3 to 7 after the MCAo. Neurological and locomotor tests were examined on day 9 (FIG. 4A).
# stroke rats (MCAo) [7] = assay: Pre-stroke i.c.v. treatment, brain infarction by TTC staining in MCAo stroke rats; format: in vivo, rat; settings: i.c.v. pretreatment, day 2
# stroke rats (MCAo) [8] = assay: Pre-stroke i.c.v. treatment, neurological and locomotor tests in MCAo stroke rats; settings: D2
# Procedure: Psilocybin or vehicle was given before or after the MCAo. For the pretreatment, animals were anesthetized. Psilocybin (100 μM×20 μL, n=7) or vehicle (saline, 20 μl, n=7) was administered intracerebroventricularly (i.c.v., AP, −0.8 mm; LV, −1.5 mm; DV, −3.5 mm) at 15 min before MCAo through a Hamilton microsyringe. The speed of injection was controlled by a syringe pump (Micro 4, WPI, Sarasota, FL).
# The right middle cerebral artery (MCA) was transiently occluded (MCAo) as we previously described (33). In brief, the bilateral common carotids were clamped with nontraumatic arterial clips. The right MCA was ligated with a 10-O suture to generate focal infarction in the cerebral cortex. The ligature and clips were removed after 60 min ischemia to generate reperfusion injury. Core body temperature was monitored with a thermistor probe and maintained at 37° C. with a heating pad during anesthesia. After recovery from anesthesia, body temperature was maintained at 37° C. using a temperature-controlled incubator.
# as §1
# A total of 14 adult rats were used for this analysis. Psilocybin (100 μM×20 μL, n=7) or vehicle (saline, 20 μL, n=7) was delivered to the lateral ventricle (i.c.v., coordinates: AP:0.8 mm, Lat:1.5 mm, DV −3.5 mm) at 10-15 min prior to the a 60-min MCAo. Behavioral tests were conducted two days (or D2) after MCAo (FIG. 2A). […] Locomotoractivity was examined in infra-red activity chambers for one hour.
# [9] = tested on: MAP2, synaptophysin (SYP), IBA1, and BDNF expression; assay: Post-stroke i.p. treatment, qRT-PCR of lesioned cerebral cortex; format: in vivo, rat; settings: 1 mg/kg/d i.p. days 3-7, cortex day 9
# [10] = ANA12 100 μM×20 μL/d intranasally days 0 and 1, Psilocybin i.c.v. prior to MCAo
# [11] = stroke reduced expression, p<0.05
smiles,measurement,setting,value
O=C(Nc1ccccc1C(=O)NC1CCCCNC1=O)c1cc2ccccc2s1 (centres unmarked) [ANA12],Psilocybin-mediated improvement in horizontal activity,stroke rats (MCAo) [1]; [10],significantly antagonized
same,Psilocybin-mediated improvement in total distance traveled,stroke rats (MCAo) [1]; [10],significantly antagonized
same,psilocybin-mediated improvement in neurological behavior,stroke rats (MCAo) [1]; [10],significantly antagonized
same,psilocybin-mediated reduction in brain infarction,"stroke rats (MCAo) [1]; ANA12 100 μM×20 μL/d intranasally days 0 and 1 after MCAo, Psilocybin i.c.v. 100 μM×20 μl 15 min prior",significantly antagonized
same,psilocybin-mediated improvement in MAP2-ir,[2],significantly antagonized
"CN(C)CCc1c[nH]c2ccccc12 [DMT, N,N-dimethyltryptamine]",BDNF expression,[3],increased
same,brain infarction,[3],reduced
same,brain inflammation,[3],reduced
same,staircase behavior,[3],improved
N[C@@H](CCC(=O)O)C(=O)O [Glutamate],MAP2 immunoreactivity (MAP2-ir),"[4]; Glutamate 100 μM added on DIV10, fixed DIV12, p<0.001",significantly reduced
"CN(C)CCc1c[nH]c2cccc(OP(=O)(O)O)c12 [Psilocybin, 4-phosphoryloxy-N,N-dimethyltryptamine]",crossing of the blood-brain barrier,[5],inefficient to freely cross the blood-brain barrier
same,Glu-mediated neuronal loss (MAP2-ir),"[4]; Glu 100 μM, Psi 10 μM, photomicrographs FIG. 1A",antagonized
same,horizontal activity,"stroke rats (MCAo) [6]; day 9, p=0.011",increased
same,total distance traveled,"stroke rats (MCAo) [6]; day 9, p=0.018",increased
same,movement number,"stroke rats (MCAo) [6]; day 9, p=0.023",increased
same,movement time,"stroke rats (MCAo) [6]; day 9, p=0.034",increased
same,body asymmetry,"stroke rats (MCAo) [6]; day 9, p=0.0445",significantly reduced
same,Bederson's neurological test,"stroke rats (MCAo) [6]; tested day 9, p=0.0421",significantly reduced
same,area of infarction in each 2-mm slice,"stroke rats (MCAo) [7]; p<0.001, two-way ANOVA, difference mainly on rostral slices",significantly lowered infarction
same,infarct volume (TTC staining),stroke rats (MCAo) [7]; typical TTC staining FIG. 3A,reduced the infarct volume
same,body asymmetry,"stroke rats (MCAo) [8]; 100 μM×20 μL i.c.v. 10-15 min prior to MCAo, p=0.00345",significantly decreased
same,horizontal activity (HACTV),"stroke rats (MCAo) [8]; 100 μM×20 μL i.c.v. prior to MCAo, one hour, p=0.0246",significantly increased
same,movement time (MOVTIME),"stroke rats (MCAo) [8]; 100 μM×20 μL i.c.v. prior to MCAo, p=0.00351",significantly increased
same,total distance traveled (TOTODIST),"stroke rats (MCAo) [8]; 100 μM×20 μL i.c.v. prior to MCAo, p=0.0103",significantly increased
same,movement number (MOVNO),"stroke rats (MCAo) [8]; 100 μM×20 μL i.c.v. prior to MCAo, p=0.0479",significantly increased
same,expression of BDNF in the lesioned brain (qRTPCR),"[9]; p=0.01, stroke vs. stroke+PSI",significantly upregulated
same,expression of MAP2 in the stroke brain (qRTPCR),[9]; [11],significantly normalized
same,expression of synaptophysin (SYP) in the stroke brain (qRTPCR),[9]; [11],significantly normalized
same,expression of IBA1 in the stroke brain (qRTPCR),"[9]; stroke upregulated expression, p<0.05",significantly normalized
